Laboratory results reported in patent US6057335A, “Pyrazole derivatives” (Banyu Pharmaceutical Co., Ltd., priority 1996, dated 2000).

Target: T1, human NPY Y5 receptor (Homo sapiens, UniProt Q15761)
T1 construct: expressed in transfected cells; host or cells: COS-7, CHO and LM(tk-)
T1 sequence (Q15761 1-445): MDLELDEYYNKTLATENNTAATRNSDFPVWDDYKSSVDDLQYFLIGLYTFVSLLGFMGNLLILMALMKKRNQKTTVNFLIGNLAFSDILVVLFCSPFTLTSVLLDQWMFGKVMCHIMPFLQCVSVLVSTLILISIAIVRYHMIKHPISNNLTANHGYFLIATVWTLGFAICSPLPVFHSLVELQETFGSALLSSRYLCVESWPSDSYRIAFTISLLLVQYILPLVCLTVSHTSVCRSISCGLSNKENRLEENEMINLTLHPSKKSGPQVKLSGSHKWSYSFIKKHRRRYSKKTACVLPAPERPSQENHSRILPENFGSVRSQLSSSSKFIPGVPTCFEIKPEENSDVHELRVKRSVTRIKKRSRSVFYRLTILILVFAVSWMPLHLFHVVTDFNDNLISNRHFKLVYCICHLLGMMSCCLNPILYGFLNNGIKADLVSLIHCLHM
Assay: test of inhibition of NPY binding ([125I] peptide YY binding to NPY Y5 receptor)
Settings: [125I] peptide YY 20,000 cpm, 25° C., 2 hours, pH 7.4, membrane preparations of cells expressing NPY Y5 receptor; read-out: IC50 value (concentration needed to inhibit 50% of the specific binding to the peptide YY)
Source text: Pharmacological Test Example 1 (test of inhibition of NPY binding)
cDNA Sequence encoding a human NPY Y5 receptor [International Publication WO 96/16542] was cloned into expression vectors pcDNA3, pRc/RSV (manufactured by Invitrogen) and pCI-neo (manufactured by Promega). Using the cationic lipid method [see Proceedings of the National Academy of Science of the United States of America, vol.84, p.7413 (1987)], host cells COS-7, CHO and LM(tk-) (American Type Culture Collection) were transfected with the thus prepared expression vectors to obtain cells in which the NPY Y5 receptor had been expressed.
Each of the membrane preparations thus prepared from the cells in which the NPY Y5 receptor had been expressed was incubated together with each compound to be tested and 20,000 cpm of [^125 I] peptide YY (manufactured by Amersham) at 25° C. for 2 hours in an assay buffer solution (25 mM HEPES buffer, pH 7.4, containing 10 mM magnesium chloride, 1 mM phenylmethylsulfonyl fluoride and 0.1% bacitracin) and then, the reaction mixture was filtered through a glass filter GF/C. After washing with 50 mM Tris buffer, pH 7.4, containing 0.3% BSA, radioactivity on the glass filter was measured using a gamma counter. […]

Structure (SMILES): COc1ccc(-c2cc(NC(=O)C3Cc4cc5ccccc5cc4C3)n[nH]2)cc1OC [Example 30, 3-(2,3-dibydro-1H-cyclopenta[b]naphthalen-2-yl)carbonylamino-5-(3,4-dimethoxyphenyl)pyrazole]
- IC50: 2.5 nM
